Patent publication US9260425B2 (Genetech, Inc., priority 2011, dated 2016)

Biological target: Pim-1 (Homo sapiens (Human), UniProt P11309)
Test: Pim kinase binding activity assay (Example 901), PIM-1 enzyme, Caliper microfluidic peptide phosphorylation
Assay type: biochemical
Conditions: 20 pM PIM-1, 10 μM ATP, 1 μM FAM-peptide, 90 minutes at room temperature
Summary of the method: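 PIM-1 at 20 pM phosphorylated 1 μM FAM-labelled Pim peptide with 10 μM ATP in HEPES pH 7.2, MgCl2, Tween 20 and DTT for 90 min at room temperature. EDTA stopped the reaction, and product and substrate were resolved by microfluidic electrophoresis (ex 488/em 530 nm). Ki was derived from substrate conversion.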

Chain of Pim-1 (P11309 whole entry): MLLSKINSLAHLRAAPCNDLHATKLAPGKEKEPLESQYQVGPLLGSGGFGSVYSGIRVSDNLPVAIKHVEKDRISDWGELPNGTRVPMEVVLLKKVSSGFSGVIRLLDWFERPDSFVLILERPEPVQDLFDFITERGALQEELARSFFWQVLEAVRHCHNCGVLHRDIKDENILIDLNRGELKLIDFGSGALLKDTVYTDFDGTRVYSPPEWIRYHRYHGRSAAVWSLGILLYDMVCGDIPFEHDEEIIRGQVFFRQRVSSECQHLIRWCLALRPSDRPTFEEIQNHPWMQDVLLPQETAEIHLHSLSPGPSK

| Ki | Structure (SMILES) |
| --- | --- |
| 0.316 nM | Cn1cc(-c2cc3c(-c4ccc(Br)c(N5CCC[C@@H](O)C5)n4)n[nH]c3cn2)cn1 [Example 394, (R)-1-(3-bromo-6-(5-(1-methyl-1H-pyrazol-4-yl)-1H-pyrazolo[3,4-c]pyridin-3-yl)pyridin-2-yl)piperidin-3-ol] |
| 0.105 nM | FC1(c2cccc(-c3n[nH]c4cnc(-c5cccnc5)cc34)n2)CCNCC1 [Example 421, 3-(6-(4-fluoropiperidin-4-yl)pyridin-2-yl)-5-(pyridin-3-yl)-1H-pyrazolo[3,4-c]pyridine] |
| 0.139 nM | CCn1cc(-c2cc3c(-c4cccc(N5CCCC[C@@H](O)C5)n4)n[nH]c3cn2)cn1 [Example 502, (R)-1-(6-(5-(1-ethyl-1H-pyrazol-4-yl)-1H-pyrazolo[3,4-c]pyridin-3-yl)pyridin-2-yl)azepan-3-ol] |
| 0.03 nM | CCn1cc(-c2cc3c(-c4ccc(C)c(N5C[C@@H](N)C[C@@H](F)C5)n4)n[nH]c3cn2)cn1 [Example 510, (3S,5R)-1-(6-(5-(1-ethyl-1H-pyrazol-4-yl)-1H-pyrazolo[3,4-c]pyridin-3-yl)-3-methylpyridin-2-yl)-5-fluoropiperidin-3-amine] |
| 1.22 nM | c1cc(-c2n[nH]c3cnc(-c4cncs4)cc23)nc(N2CCCCC2)c1 [Example 358, 5-(3-(6-(piperidin-1-yl)pyridin-2-yl)-1H-pyrazolo[3,4-c]pyridin-5-yl)thiazole] |
| 0.084 nM | CCn1cc(-c2cc3c(-c4cccc(N5CCNC(CO)C5)n4)n[nH]c3cn2)cn1 (centres unmarked) [Example 463, (4-(6-(5-(1-ethyl-1H-pyrazol-4-yl)-1H-pyrazolo[3,4-c]pyridin-3-yl)pyridin-2-yl)piperazin-2-yl)methanol] |
| 0.376 nM | CC(C)(C)n1cc(-c2cc3c(-c4cccc(N5CCNCC5)n4)n[nH]c3cn2)cn1 [Example 448, 5-(1-tert-butyl-1H-pyrazol-4-yl)-3-(6-(piperazin-1-yl)pyridin-2-yl)-1H-pyrazolo[3,4-c]pyridine] |
| 0.181 nM | CCn1cc(-c2cc3c(-c4cccc(N5CCNC(C(F)(F)F)CC5)n4)n[nH]c3cn2)cn1 (centres unmarked) [Example 491, 5-(1-ethyl-1H-pyrazol-4-yl)-3-(6-(5-(trifluoromethyl)-1,4-diazepan-1-yl)pyridin-2-yl)-1H-pyrazolo[3,4-c]pyridine] |
| 0.527 nM | Cn1cc(-c2cc3c(-c4ccc(Br)c(N5CC(N6CCNC(=O)C6)C5)n4)n[nH]c3cn2)cn1 [Example 405, 4-(1-(3-bromo-6-(5-(1-methyl-1H-pyrazol-4-yl)-1H-pyrazolo[3,4-c]pyridin-3-yl)pyridin-2-yl)azetidin-3-yl)piperazin-2-one] |
| 0.077 nM | NC1CCCCN(c2cccc(-c3n[nH]c4cnc(-c5cnn(CCF)c5)cc34)n2)C1 (centres unmarked) [Example 514, 1-(6-(5-(1-(2-fluoroethyl)-1H-pyrazol-4-yl)-1H-pyrazolo[3,4-c]pyridin-3-yl)pyridin-2-yl)azepan-3-amine] |
| 0.09 nM | CCn1cc(-c2cc3c(-c4ccc(Br)c(N5CCNCC5)n4)n[nH]c3cn2)cn1 [Example 404, 3-(5-bromo-6-(piperazin-1-yl)pyridin-2-yl)-5-(1-ethyl-1H-pyrazol-4-yl)-1H-pyrazolo[3,4-c]pyridine] |
| 0.029 nM | Cc1ccc(-c2n[nH]c3cnc(-c4cnn(C)c4)cc23)nc1N1CCN(C)CC1 [Example 440, 5-(1-methyl-1H-pyrazol-4-yl)-3-(5-methyl-6-(4-methylpiperazin-1-yl)pyridin-2-yl)-1H-pyrazolo[3,4-c]pyridine] |

Continued, compound first:

| Structure (SMILES) | Ki |
| --- | --- |
| N[C@H]1CCC[C@H](Nc2cccc(-c3n[nH]c4cnc(-c5cccnc5)cc34)n2)C1 [Example 353, (1S,3S)-N1-(6-(5-(pyridin-3-yl)-1H-pyrazolo[3,4-c]pyridin-3-yl)pyridin-2-yl)cyclohexane-1,3-diamine] | 0.397 nM |
| Fc1ccccc1-c1n[nH]c2cnc(-c3cnccc3OC3CNC3)cc12 [Example 198, 5-(4-(azetidin-3-yloxy)pyridin-3-yl)-3-(2-fluorophenyl)-1H-pyrazolo[3,4-c]pyridine] | 3.12 nM |
| CN1CC(c2cc3c(-c4ccccc4)n[nH]c3cn2)=CC1=O [Example 259, 1-methyl-4-(3-phenyl-1H-pyrazolo[3,4-c]pyridin-5-yl)-1H-pyrrol-2(5H)-one] | 920 nM |
| c1cncc(-c2cc3c(-c4cccnc4)n[nH]c3cn2)c1 [Example 176, 3,5-di(pyridin-3-yl)-1H-pyrazolo[3,4-c]pyridine] | 6.46 nM |
| CN1CCN(c2nc(-c3n[nH]c4cnc(-c5cccnc5)cc34)ccc2Cl)CC1 [Example 255, 3-(5-chloro-6-(4-methylpiperazin-1-yl)pyridin-2-yl)-5-(pyridin-3-yl)-1H-pyrazolo[3,4-c]pyridine] | 0.113 nM |
| Cn1cc(-c2cc3c(-c4ccccc4)n[nH]c3cn2)cn1 [Example 133, 5-(1-methyl-1H-pyrazol-4-yl)-3-phenyl-1H-pyrazolo[3,4-c]pyridine] | 5.57 nM |
| c1cncc(-c2cc3c(N4CCC(N5CCNCC5)C4)n[nH]c3cn2)c1 (centres unmarked) [Example 320, 3-(3-(piperazin-1-yl)pyrrolidin-1-yl)-5-(pyridin-3-yl)-1H-pyrazolo[3,4-c]pyridine] | 3.86 nM |
| Cc1n[nH]c2cnc(-c3cn[nH]c3)cc12 [Example 102, 3-methyl-5-(1H-pyrazol-4-yl)-1H-pyrazolo[3,4-c]pyridine] | 302 nM |
| NC1CCCN(c2cccc(-c3n[nH]c4cnc(-c5cccnc5)cc34)n2)CC1 (centres unmarked) [Example 197, 1-(6-(5-(pyridin-3-yl)-1H-pyrazolo[3,4-c]pyridin-3-yl)pyridin-2-yl)azepan-4-amine] | 0.038 nM |
| NC[C@H]1CCN(c2cncc(-c3n[nH]c4cnc(-c5cccnc5)cc34)c2)C1 [Example 168, (R)-(1-(5-(5-(pyridin-3-yl)-1H-pyrazolo[3,4-c]pyridin-3-yl)pyridin-3-yl)pyrrolidin-3-yl)methanamine] | 1.6 nM |
| c1cncc(-c2cc3c(-c4cn[nH]c4)n[nH]c3cn2)c1 [Example 156, 3-(1H-pyrazol-4-yl)-5-(pyridin-3-yl)-1H-pyrazolo[3,4-c]pyridine] | 2.31 nM |
| NC1CCN(Cc2n[nH]c3cnc(-c4cn[nH]c4)cc23)CC1 [Example 108, l-((5-(1H-pyrazol-4-yl)-1H-pyrazolo[3,4-c]pyridin-3-yl)methyl)piperidin-4-amine] | 1100 nM |
| N[C@H]1CCCN(c2nc(-c3n[nH]c4cnc(-c5cccnc5)cc34)ccc2Cl)C1 [Example 265, (S)-1-(3-chloro-6-(5-(pyridin-3-yl)-1H-pyrazolo[3,4-c]pyridin-3-yl)pyridin-2-yl)piperidin-3-amine] | 0.019 nM |
| c1cncc(-c2cc3c(-c4cncc(NC5CCNCC5)c4)n[nH]c3cn2)c1 [Example 170, N-(piperidin-4-yl)-5-(5-(pyridin-3-yl)-1H-pyrazolo[3,4-c]pyridin-3-yl)pyridin-3-amine] | 0.443 nM |
| c1ccc(-c2cc3c(-c4ccccn4)n[nH]c3cn2)nc1 [Example 256, 3,5-di(pyridin-2-yl)-1H-pyrazolo[3,4-c]pyridine] | 1500 nM |
| NC(=O)Cc1cc2c(-c3cccc(N4CCNCC4)n3)n[nH]c2cn1 [Example 253, 2-(3-(6-(piperazin-1-yl)pyridin-2-yl)-1H-pyrazolo[3,4-c]pyridin-5-yl)acetamide] | 171 nM |
| Fc1ccccc1-c1n[nH]c2cnc(-c3cncc(NC4CCNCC4)c3)cc12 [Example 171, 5-(3-(2-fluorophenyl)-1H-pyrazolo[3,4-c]pyridin-5-yl)-N-(piperidin-4-yl)pyridin-3-amine] | 2.42 nM |
